Assay results: US20100129465A1, “Methods and Compositions Related to Acne Treatment” (priority 2008, published 2010)

Tested on: skin and eyes
Conditions: aqueous solution, pH=3.0

O=C(O)CO [glycolic acid]
sting or burning when applied to freshly shaven skin: stings or burns
